Converted amounts (≈) assume the structure as drawn.
Assays:
proteasome = assay: Proteasome activity (Proteasome-GLO) in intact MM1.S cells; assay type: cell-based; conditions: 3 hr at 37° C.
Method: Proteasome activity was measured in intact MM1.S cells as cleavage of peptide substrates, specific for Trypsin like (TL), Chemotrypsin like (CTL) and Caspase like (PL) activities of the proteasome following treatment with Compound B1, Compound AA or Bortezomib (BTZ) at ˜EC50 concentrations for 3 hr at 37° C. BTZ was used as positive control.
Proteasome activity. The assay was performed only when cell viability is ≥90%. Cells were seeded in 96-well white clear bottom plates and treated with diluted compounds or vehicle control in triplicates for 3 hours at various concentrations. Catalytic activity was measured using three luminogenic proteasome substrates: Suc-LLVY-aminoluciferin (Succinyl-leucine-leucine-valine-tyrosine-aminoluciferin), Z-LRR-aminoluciferin (Z-leucine-arginine-arginine-aminoluciferin) and Z-nLPnLD-aminoluciferin (Z-norleucine-proline-norleucine-aspartate-aminoluciferin) for the chymotrypsin-like, trypsin-like and caspase-like activities, respectively (Proteasome-GLO, Promega). The emitted light was proportional to the proteasomal activity. Catalytic activity was calculated as the percent activity from control vehicle-treated cells.
MM1.S cells, were treated with Compound B1, Compound AA or Bortezomib (BTZ) at various concentrations for 3 hr at 37° C. […] Proteasome activity was measured by cleavage of proteasome-specific peptide substrates for TL, CTL and PL activities.

MM1.S = assay: Cell viability, ATPlite 1-step, MM cell lines; assay type: cell-based; conditions: Homo sapiens; MM1.S MM cell line; 48 hours; read-out: Compound EC50
Method: (§1) Cell Viability. The assay was performed only when cell viability was ≥90%. Cells were seeded in 96-well white clear bottom plates at concentration of 100,000 cells/mL and treated with serially diluted compounds or vehicle (DMSO) control in triplicates for 48 hours (h). Cell viability was determined using the ATPlite 1-step assay system (PerkinElmer). The method was based on the production of light caused by the reaction of ATP, which was a marker for cell viability. […] were added to the plates which were read in a plate reader for luminescence. The emitted light is proportional to the ATP concentration. Viability was calculated as the percent of viable cells from control vehicle-treated cells. EC50 was calculated using Prism software.
(§2) Potency of compounds were assessed by viability assay.

U266 = assay: Cell viability, ATPlite 1-step, MM cell lines; assay type: cell-based; conditions: Homo sapiens, U-266; U266 MM cell line; 48 hours; read-out: Compound EC50
Method: as §1, §2

MM cell lines = assay: Cell viability, ATPlite 1-step, MM cell lines; assay type: cell-based; conditions: cell line printed N/A; read-out: Compound EC50
Method: as §1, §2

[1] = tested on: poly-ubiquitinated proteins; assay: Western blot of poly-ubiquitinated proteins in MM1.S cells; assay type: cell-based; conditions: SDS-PAGE immunoblot
Method: MM1.S cells were treated with Compound B1 (FIG. 1A), Compound AA (FIG. 1B) and Compound E1 (FIG. 1C) for indicated periods of time. Following treatment, the cells were harvested, and the lysates resolved on SDS-PAGE. Transferred membranes were blotted with antibodies as indicated. Actin was used as loading control.
Protein analysis by Western blot. At the end of treatment period, the cells were lysed with M-PER mammalian protein extraction reagent (ThermoFisher Scientific) supplemented with protease inhibitors. Equal protein amounts were resolved on pre-cast SDS-PAGE (ThermoFisher Scientific) and transferred to a PVDF membrane. The membrane was immunoblotted with antibodies as indicated. The following antibodies were used: Ub MAb (SC-8017, Santa-Cruz), ATF4, ATF6, phospho JNK, JNK (Cell signaling); eIF2alpha, phospho eIF2alpha (Novus).

[2] = Kinetic solubility by differential UV absorbance; assay type: physicochemical; conditions: aqueous buffer, kinetic from dmso stock; DMSO stock diluted in PBS, OD before and after centrifugation
Method: FIG. 3A-3B depict the kinetic solubility of Compound B1 (FIG. 3A) and Compound E1 (FIG. 3B) as measured by differential UV absorbance of the compounds, as performed before and after centrifugation. Soluble concentrations were determined when OD was equivalent between centrifuged and non-centrifuged fractions. Compounds were dissolved from co-solvent stock, and further serially 2-fold diluted in PBS. OD was measured at the maximal absorbance for each compound before (BC) and after (AC) centrifugation, using Spark 20M, Tecan.
Kinetic solubility quantification. Compound B1/Compound E1 DMSO stock was diluted with PBS by serial 2-fold dilutions. Then, the samples were centrifuged for 5 minutes at 17,000 g to precipitate any insoluble compound. Each sample was tested at a single wave length (Compound B1 at […]; Compound E1 at […]) in duplicate before and after centrifugation to assess solubility of the compound. Soluble concentrations were determined when optical density (OD) was equivalent between centrifuged and non-centrifuged fractions.
Kinetic solubility of all Compounds was determined by differential UV absorbance before and after centrifugation. […] Solubility concentration was determined when OD was equivalent between centrifuged and non-centrifuged fractions (FIG. 3A-3B).

SMILES | EC50 (MM1.S) [nM] | EC50 (U266) [nM] | other results
CC(C)C[C@H](NC(=O)[C@H](Cc1ccccc1)NC(=O)c1cnccn1)B(O)O [Bortezomib, reference compound] | – | – | inhibition of the enzymatic functions of the proteasome (TL, CTL and PL activities) (proteasome): specifically inhibits CTL activity
CN(CCCN=[N+]=[N-])CC(=O)NCC(=O)N1C/C(=C\c2ccc(C#N)cc2)C(=O)/C(=C/c2ccc(C#N)cc2)C1 [Compound B2] | < 300 | – | –
C#CCN(C)CC(=O)NCC(=O)N1C/C(=C\c2ccc(C#N)cc2)C(=O)/C(=C/c2ccc(C#N)cc2)C1 [Compound B3] | < 300 | < 300 | –
CC(=O)NCC(=O)N1C/C(=C\c2ccc(F)c(C#N)c2)C(=O)/C(=C/c2ccc(F)c(C#N)c2)C1 [Compound B5, N-{2-[(3E,5E)-3,5-bis[(3-cyano-4-fluorophenyl)methylidene]-4-oxopiperidin-1-yl]-2-oxoethyl}acetamide] | – | < 300 | –
CC(=O)NCC(=O)N1C/C(=C\c2ccc(C#N)cc2)C(=O)/C(=C/c2ccc(C#N)cc2)C1 [Compound B6, N-{2-[(3E,5E)-3,5-bis[(4-cyanophenyl)methylidene]-4-oxopiperidin-1-yl]-2-oxoethyl}acetamide] | < 300 | – | –
CC(=O)N[C@H](CO)C(=O)N1C/C(=C\c2ccc(C#N)cc2)C(=O)/C(=C/c2ccc(C#N)cc2)C1 [Compound B7, N-[(2R)-1-[(3E,5E)-3,5-bis[(4-cyanophenyl)methylidene]-4-oxopiperidin-1-yl]-3-hydroxy-1-oxopropan-2-yl]acetamide] | – | 300 to 1000 | –
N#Cc1ccc(/C=C2\CN(C(=O)CNC(=O)CO)C/C(=C\c3ccc(C#N)cc3)C2=O)cc1 [Compound B8] | < 300 | – | –
O=C1/C(=C/c2ccc(Cl)c(Cl)c2)CN(C(=O)CNc2ccccc2)C/C1=C\c1ccc(Cl)c(Cl)c1 [Compound B9] | – | ≥ 1000 | –
CNCC(=O)N1C/C(=C\c2ccc(Cl)c(Cl)c2)C(=O)/C(=C/c2ccc(Cl)c(Cl)c2)C1 [Compound B10] | – | ≥ 1000 | –
COCCNCC(=O)N1C/C(=C\c2ccc(Cl)c(Cl)c2)C(=O)/C(=C/c2ccc(Cl)c(Cl)c2)C1 [Compound B11] | – | ≥ 1000 | –
O=C1/C(=C/c2ccc(Cl)c(Cl)c2)CN(C(=O)CCc2ccccc2)C/C1=C\c1ccc(Cl)c(Cl)c1 [Compound B12] | – | 300 to 1000 | –
CC(=O)NCCC(=O)N1C/C(=C\c2ccc(Cl)c(Cl)c2)C(=O)/C(=C/c2ccc(Cl)c(Cl)c2)C1 [Compound B13] | < 300 | – | –
O=C1/C(=C/c2ccc(Cl)c(Cl)c2)CN(C(=O)C(O)Cc2ccccc2)C/C1=C\c1ccc(Cl)c(Cl)c1 (centres unmarked) [Compound B14] | – | 300 to 1000 | –
O=C1/C(=C/c2ccc(Cl)c(Cl)c2)CN(C(=O)C(Cc2ccccc2)C(=O)O)C/C1=C\c1ccc(Cl)c(Cl)c1 (centres unmarked) [Compound B15] | – | ≥ 1000 | –
O=C1/C(=C/c2ccc(Cl)c(Cl)c2)CN(C(=O)C2(Nc3ccccc3)CC2)C/C1=C\c1ccc(Cl)c(Cl)c1 [Compound B16] | < 300 | – | –
COC(Cc1ccccc1)C(=O)N1C/C(=C\c2ccc(Cl)c(Cl)c2)C(=O)/C(=C/c2ccc(Cl)c(Cl)c2)C1 (centres unmarked) [Compound B17] | – | < 300 | –
N[C@@H](Cc1ccccn1)C(=O)N1C/C(=C\c2ccc(Cl)c(Cl)c2)C(=O)/C(=C/c2ccc(Cl)c(Cl)c2)C1 [Compound B18] | – | < 300 | –
N[C@@H](Cc1cccc(O)c1)C(=O)N1C/C(=C\c2ccc(Cl)c(Cl)c2)C(=O)/C(=C/c2ccc(Cl)c(Cl)c2)C1 [Compound B19] | – | < 300 | –

SMILES | EC50 (MM1.S) [nM] | EC50 (U266) [nM] | other results
O=C1/C(=C/c2ccc(Cl)c(Cl)c2)CN(C(=O)C2COCCN2)C/C1=C\c1ccc(Cl)c(Cl)c1 (centres unmarked) [Compound B20] | – | < 300 | –
N[C@@H](Cc1ccccc1)C(=O)N1C/C(=C\c2ccccc2)C(=O)/C(=C/c2ccc(Cl)c(Cl)c2)C1 [Compound B21] | – | 300 to 1000 | –
N[C@@H](Cc1ccccc1)C(=O)N1C/C(=C\c2ccc(Cl)c(Cl)c2)C(=O)/C(=C/c2cc(Cl)ccc2Cl)C1 [Compound B22] | – | < 300 | –
CC(=O)NC1(C(=O)N2C/C(=C\c3ccc(Cl)c(Cl)c3)C(=O)/C(=C/c3ccc(Cl)c(Cl)c3)C2)CC1 [Compound B23] | < 300 | – | –
CNC(=O)CCC(=O)N1C/C(=C\c2ccc(Cl)c(Cl)c2)C(=O)/C(=C/c2ccc(Cl)c(Cl)c2)C1 [Compound B24] | – | 300 to 1000 | –
CC(=O)NCC(=O)N1C/C(=C\c2ccc(Cl)c(Cl)c2)C(=O)/C(=C/c2ccc(Cl)c(Cl)c2)C1 [Compound B25] | – | < 300 | –
O=C1/C(=C/c2ccc(Cl)c(Cl)c2)CN(C(=O)C2(Nc3ccccc3)CC2)CC1Cc1ccc(Cl)c(Cl)c1 (centres unmarked) [Compound B26] | ≥ 1000 | – | –
CC(=O)NCCC(=O)N1C/C(=C\c2ccc(Cl)c(Cl)c2)C(=O)C(Cc2ccc(Cl)c(Cl)c2)C1 (centres unmarked) [Compound B27] | – | ≥ 1000 | –
CC(C)C(Nc1ccccc1)C(=O)N1C/C(=C\c2ccc(Cl)c(Cl)c2)C(=O)/C(=C/c2ccc(Cl)c(Cl)c2)C1 (centres unmarked) [Compound B28] | – | < 300 | –
CC(=O)N(C)CCC(=O)N1C/C(=C\c2ccc(Cl)c(Cl)c2)C(=O)/C(=C/c2ccc(Cl)c(Cl)c2)C1 [Compound B29] | – | – | EC50 (MM cell lines): ≥ 1000 nM
CNC(=O)CC(=O)N1C/C(=C\c2ccc(Cl)c(Cl)c2)C(=O)/C(=C/c2ccc(Cl)c(Cl)c2)C1 [Compound B30] | – | < 300 | –
CN(C)C(Cc1ccccc1)C(=O)N1C/C(=C\c2ccc(Cl)c(Cl)c2)C(=O)/C(=C/c2ccc(Cl)c(Cl)c2)C1 (centres unmarked) [Compound B32] | – | < 300 | –
CN(C)CCS(=O)(=O)N1C/C(=C\c2ccc(C#N)cc2)C(=O)/C(=C/c2ccc(C#N)cc2)C1 [Compound BA] | < 300 | – | –
CN(C)CCCS(=O)(=O)N1C/C(=C\c2ccc(F)c(C(F)(F)F)c2)C(=O)/C(=C/c2ccc(F)c(C(F)(F)F)c2)C1 [Compound CA] | < 300 | – | –
COCCS(=O)(=O)N1C/C(=C\c2ccc(Cl)c(Cl)c2)C(=O)/C(=C/c2ccc(Cl)c(Cl)c2)C1 [Compound D1] | – | < 300 | –
Cc1noc(C)c1/C=C1\CN(S(=O)(=O)CCCN(C)C)C/C(=C\c2c(C)noc2C)C1=O [Compound E1] | < 300 | – | accumulation of poly-ubiquitinated proteins [1]: observable accumulation of poly-ubiquitinated proteins; solubility kinetic [2]: 2500 µM (≈ 1160 µg/mL)
CN(C)CCCS(=O)(=O)N1C/C(=C\c2ccc(C#N)cc2)C(=O)C(Cc2ccc(C#N)cc2)C1 (centres unmarked) [Compound F1] | < 300 | – | –
